These results are taken from PubChem BioAssay AID328 (DTP/NCI, 2004).

This assay concerns BDF1 mice, P388 leukemia ip, median survival T/C. As to the kind of experiment: NCI In Vivo Anticancer Drug Screen. Data for tumor model P388 Leukemia (intraperitoneal) in B6D2F1 (BDF1) mice. As to conditions: endpoint: median survival time, higher = longer survival. Summed up:
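Mice carrying the transplantable tumour receive compound or vehicle. Survival is followed in each arm, and the treated measure is divided by the vehicle measure.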

[1] abbreviates: dose: 100.0 mg/kg/injection, schedule: Q01DX009 (ip), vehicle: saline with Tween-80.
The mark [2] stands for this setting: dose: 100.0 mg/kg/injection, schedule: Q04DX003 (ip), vehicle: saline with Tween-80.
The mark [3] stands for this setting: dose: 50.0 mg/kg/injection, schedule: Q01DX009 (ip), vehicle: saline with Tween-80.
Where [4] appears, read: dose: 25.0 mg/kg/injection, schedule: Q01DX009 (ip), vehicle: saline with Tween-80.
Where [5] appears, read: dose: 50.0 mg/kg/injection, schedule: Q04DX003 (ip), vehicle: saline with Tween-80.
The mark [6] stands for this setting: dose: 1.5 mg/kg/injection, schedule: Q01DX009 (ip), vehicle: saline.

Where “and” joins values, the source holds several entries; their conditions need not be identical. Equal values may be shown once. Toxic doses and inconclusive results are not listed.

For `COc1cc(C(=O)O)c2c(c1C)OC(=O)c1c(C)cc(O)c(C=O)c1O2`, the T/C reads like this: (dose: 2.0 mg/kg/injection, schedule: Q01DX010 (ip), vehicle: saline) 95 % of control; (dose: 4.0 mg/kg/injection, schedule: Q01DX009 (ip), vehicle: Klucel (hydroxypropylcellulose) (HPC)) 109 % of control; (dose: 4.0 mg/kg/injection, schedule: Q01DX010 (ip), vehicle: saline) 90 % of control and 122 % of control and 123 % of control; (dose: 8.0 mg/kg/injection, schedule: Q01DX010 (ip), vehicle: saline) 90 % of control; (dose: 10.0 mg/kg/injection, schedule: Q04DX003 (ip), vehicle: saline) 104 % of control; (dose: 16.0 mg/kg/injection, schedule: Q01DX010 (ip), vehicle: saline) 113 % of control and 123 % of control. Moreover, the T/C was 115 % of control (dose: 20.0 mg/kg/injection, schedule: Q04DX003 (ip), vehicle: saline); 111 % of control (dose: 40.0 mg/kg/injection, schedule: Q01DX001 (ip), vehicle: saline); 115 % of control (dose: 80.0 mg/kg/injection, schedule: Q01DX001 (ip), vehicle: saline); 104 % of control (dose: 80.0 mg/kg/injection, schedule: Q04DX003 (ip), vehicle: saline).

On to `COc1ccc(C(CCl)(CCl)c2ccc(OC)c(C)c2)cc1C`, for which the T/C is 104 % of control under setting [1]; 91 % of control under setting [2]; 87 % of control (dose: 200.0 mg/kg/injection, schedule: Q04DX003 (ip), vehicle: saline with Tween-80); 100 % of control (dose: 400.0 mg/kg/injection, schedule: Q01DX009 (ip), vehicle: saline with Tween-80); 100 % of control (dose: 400.0 mg/kg/injection, schedule: Q04DX003 (ip), vehicle: saline with Tween-80).

Take `COC(=O)C1=C(C)NC(C)=C(C(=O)OC)C1C(C)Cl` (configuration not stated): the T/C was 118 % of control under setting [3] and 109 % of control under setting [1].

For the compound `CCOC(=S)SCC(=O)Nc1ccccc1`, the T/C runs as follows: under setting [4], 93 % of control; under setting [3], 90 % of control; under setting [1], 103 % of control.

As for `CSc1nc(=O)c(=O)nc(Nc2ccccc2)n1-c1ccccc1`, the T/C by setting is: (dose: 12.5 mg/kg/injection, schedule: Q01DX009 (ip), vehicle: saline with Tween-80) 88 % of control; under setting [4], 95 % of control; under setting [3], 88 % of control.

As to `ClC1=NC(Cl)C(Cl)=N/C1=N\c1ncn[nH]1` (configuration not stated), the T/C (dose: 6.25 mg/kg/injection, schedule: Q01DX009 (ip), vehicle: saline with Tween-80) is 110 % of control; the T/C (dose: 22.0 mg/kg/injection, schedule: Q04DX003 (ip), vehicle: saline with Tween-80) is 113 % of control; the T/C under setting [5] is 118 % of control; the T/C (dose: 75.0 mg/kg/injection, schedule: Q04DX003 (ip), vehicle: saline with Tween-80) was 90 % of control.

Regarding `Nc1ncnc2c(C3OC(CO)C(O)C3O)[nH]nc12` (configuration not stated), the T/C by setting is: under setting [6], 100 % of control; (dose: 2.3 mg/kg/injection, schedule: Q01DX009 (ip), vehicle: saline) 109 % of control; (dose: 8.0 mg/kg/injection, schedule: Q01DX009 (ip), vehicle: saline) 113 % of control; (dose: 12.5 mg/kg/injection, schedule: Q01DX009 (ip), vehicle: saline) 159 % of control; (dose: 33.0 mg/kg/injection, schedule: Q04DX003 (ip), vehicle: saline) 104 % of control; (dose: 50.0 mg/kg/injection, schedule: Q04DX003 (ip), vehicle: saline) 114 % of control. Also, the T/C was 95 % of control (dose: 75.0 mg/kg/injection, schedule: Q04DX003 (ip), vehicle: saline) and 118 % of control (dose: 100.0 mg/kg/injection, schedule: Q04DX003 (ip), vehicle: saline sonified).

With `C=C(C)C1CC2(C)C(C)CC(O)CC2C(OC(=O)C=C(C)C)C1O` (configuration not stated), the T/C (dose: 0.75 mg/kg/injection, schedule: Q01DX009 (ip), vehicle: saline) is 94 % of control; the T/C under setting [6] was 94 % of control; the T/C (dose: 3.0 mg/kg/injection, schedule: Q01DX009 (ip), vehicle: saline) was 103 % of control; the T/C (dose: 6.0 mg/kg/injection, schedule: Q01DX009 (ip), vehicle: saline) was 89 % of control.

In the case of `Cc1ccccc1-c1nc2cc(Cl)ccc2c(=O)o1`, the T/C reads like this: (dose: 25.0 mg/kg/injection, schedule: Q04DX003 (ip), vehicle: saline with Tween-80) 104 % of control; under setting [5], 100 % of control; under setting [2], 109 % of control.
